Experimental data published in patent US20260200926A1, “TREM2 MODULATORS” (Muna Therapeutics ApS, priority 2022, published 2026).
Like-named read-outs stand apart in the source and are kept apart here.

Molecular target: T1, Human TREM2 (Homo sapiens, UniProt Q9NZC2)
T1 construct: expressed in transfected cells
Test: Human TREM2 activity: cellular phosphorylation of Syk (AlphaLISA SureFire Ultra p-SYK) in HEK293/DAP12+TREM2 stable cell line
Type: cell-based
Details: for EC50: phospho-Syk AlphaLISA signal, HEK293/DAP12+TREM2 cells, concentration giving 50% of maximal response, read-out: EC50
Source text: Human TREM2, in vitro Measurement of Triggering Receptor Expressed on Myeloid Cells 2 activity using cellular phosphorylation of Spleen Tyrosine Kinase (“Syk”) Assay
HEK-293 cells were co-transfected with separate plasmids encoding TREM2 and DAP12 to generate a stable cell line. After antibiotic selection, functional clone pool analysis and two successive limiting dilutions, the final clone “HEK293/DAP12+TREM2” underwent a qPCR analysis and a pharmacological validation.
TREM2 signaling through DAP12 was monitored in the HEK293/DAP12+TREM2 stable cell line by measuring the phosphorylation levels of the Syk kinase using the commercially available AlphaLISA SureFire Ultra p-SYK (Tyr525/526) Assay Kit (PerkinElmer #ALSU-PSYK), based on the Perkin Elmer AlphaScreen/AlphaLISA technology.
Compounds are transferred to the test plate and tested in full dose response, 8 concentrations in quadruplicate data points. Compound serial dilutions were performed at Cybi-Felix instrument in 100% DMSO and the dose response curves were assembled in automated fashion in 384MPT at Hamilton STARlet instrument. All the stock solutions were prepared at 20 mM in 100% DMSO. For compounds testing, the starting concentration was 100 μM, dilution steps 1:6. […] Finally, a 384MPT reformatted for all compounds at 8 concentrations, quadruplicates, was used as “mother to child” process with a CyBi®-Well dispenser in which 1 μL of each compound was moved into a destination plate pre-filled with 65.6 μL of EMEM cell culture medium (BIOWHITTAKER_cat.BE12-125F), thus obtaining 3× concentrated compounds working solution. In columns 1-2 and 23-24 the control wells were added. In particular, dose response curves of a reference control agonist were included in column 1 and 24 as reference control agonist (Reference control agonists used include Human TREM2 polyclonal Antibody AF1828: R&D Systems; Human TREM2 monoclonal Antibody MAB1828: R&D Systems). The dose response curves were tested starting at 30 μM, dilution step 1:6. Both “source” compound plate and “destination” compound plate were barcoded and a relationship between the two plates was thus generated.
HEK293/DAP12+TREM2 cells were cultured in EMEM medium supplemented with IX Penicillin/Streptomycin (BIOWHITTAKER_cat.DE17-602E), ULTRAGLUTAMINE I 200 mM, 10% Fetal Bovine Serum plus antibiotics referred to as “HEK293 Culture Medium”. The day before the experiment, cells were detached by gentle wash with DPBS, followed by 5 min incubation at 37° C. with Trypsin solution. Cells were then diluted in HEK293 Culture Medium without antibiotics, counted and seeded into 384-well poly-D-Lysine coated microplates black/clear bottom (GREINER 781946) at a density of 10,000 cells/well in 25 μL/well by the use of a MATRIX WellMate dispenser. Plates were placed into a humidified cell culture incubator at 37° C. with 5% CO2 until the experimental day. 20-24 hours after seeding mature medium was removed and replaced with 10 μL/well of EMEM cell medium supplemented with 0.1% Pluronic F-68 non-ionic surfactant (Thermofisher, 24040032), referred to as “Assay Buffer”, using the CyBi®-Well instrument. Then 5 μL/well of Assay Buffer containing 3× concentrated test compounds or the reference control agonist (in 0.5% final DMSO concentration) were added to the cells with the CyBi®-Well instrument. Cell plates were incubated for 30 min into a humidified cell culture incubator at 37° C. with 5% CO2·, then the medium was removed by manually discard. 20 μL/well of lysis buffer were dispensed using the CyBi®-Well instrument and plates were incubated for 10 min at room temperature on a plate shaker (350 rpm). Then, 10 μL/well of lysate were transferred to the Alpha plates. The CyBi®-Well instrument was used to dispense 5 μL/well of AlphaLISA Acceptor Bead Solution in IX Immunoassay buffer (Perkin Elmer AL000F). Then the plates were sealed with Heat sealing foil, shaked for 2 minutes (350 rpm) and incubated for 1 hour at room temperature.

[1] = HEK293, maximal response relative to reference agonist example 1B (remaining examples), read-out: Emax
[2] = HEK293, maximal response relative to reference agonist human TREM2 MAB1828 (examples 1, 1A and 1B), read-out: Emax

T1 sequence (Q9NZC2 19-230): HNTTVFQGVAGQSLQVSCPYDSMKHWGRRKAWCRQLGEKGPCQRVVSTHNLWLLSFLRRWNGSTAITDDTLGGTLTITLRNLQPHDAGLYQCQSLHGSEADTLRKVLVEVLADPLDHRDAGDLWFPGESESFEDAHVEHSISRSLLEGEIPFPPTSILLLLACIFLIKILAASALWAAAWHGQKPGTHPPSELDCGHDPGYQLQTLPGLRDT
T1 sequence (O43914 22-113 partner): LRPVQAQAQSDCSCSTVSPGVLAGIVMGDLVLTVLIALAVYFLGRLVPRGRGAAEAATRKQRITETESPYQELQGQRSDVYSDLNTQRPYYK

Row | Compound | Emax (maximal response relative to reference agonist example 1B (remaining examples)) | EC50 | Emax [1] | Emax [2]
1 | 6-((2R,4S)-2-(1-cyclopropyl-1H-pyrazol-4-yl)tetrahydro-2H-pyran-4-yl)-8-(2-fluoro-4-(trifluoromethyl)phenyl)-2,3-dimethylquinazolin-4 (3H)-one [Example 120B] | ++ (75-110%) | 10 to 100 nM |  | 
2 | Cc1nc2c(-c3ccc(Cl)cc3F)nc([C@H]3CCO[C@@H](c4cnn(C5CC5)c4)C3)nc2c(=O)n1C (racemic) [Example 14, 8-(4-chloro-2-fluorophenyl)-6-((2R,4S)-2-(1-cyclopropyl-1H-pyrazol-4-yl)tetrahydro-2H-pyran-4-yl)-2,3-dimethylpyrimido[5,4-d]pyrimidin-4 (3H)-one] |  | 100 to 1000 nM | 75 to 110% | 
3 | Cc1nc2c(-c3ccc(C(F)(F)F)nc3)nc(N3CCOC(c4cnn(C5CC5)c4)C3)nc2c(=O)n1C (racemic) [Example 19, 6-(2-(1-cyclopropyl-1H-pyrazol-4-yl)morpholino)-2,3-dimethyl-8-(6-(trifluoromethyl)pyridin-3-yl)pyrimido[5,4-d]pyrimidin-4 (3H)-one] |  | 10 to 100 nM | < 75% | 
4 | Cc1nc2c(-c3ccc(C(F)(F)F)cc3F)nc(N3CCO[C@H](c4cnn(C5CC5)c4)C3)nc2c(=O)n1C (single isomer, unassigned) [Example 20A] |  | 10 to 100 nM | 75 to 110% | 
5 | Cc1cc([C@H]2CN(c3nc(-c4ccc(C(F)(F)F)cc4F)c4nc(C)n(C)c(=O)c4n3)CCO2)ccn1 (single isomer, unassigned) [Example 21B] |  | < 1 nM | 75 to 110% | 
6 | Cc1cc([C@H]2CN(c3nc(-c4ccc(C(F)(F)F)nc4)c4nc(C)n(C)c(=O)c4n3)CCO2)ccn1 (single isomer, unassigned) [Example 22B] |  | 1 to 10 nM | 75 to 110% | 
7 | Cc1nc2c(-c3ccc(Cl)cc3F)nc([C@@H]3CCO[C@H](c4cnn(C5CC5)c4)C3)nc2c(=O)n1C (single isomer, unassigned) [Example 24A] |  | 1 to 10 nM | 75 to 110% | 
8 | Cc1nc2c(-c3ccc(C(F)(F)F)cc3F)nc(N3CCO[C@H](c4cnn(C)c4)C3)nc2c(=O)n1C (single isomer, unassigned) [Example 25A] |  | 10 to 100 nM | < 75% | 
9 | Cc1nc2c(-c3cc(F)c(F)cc3F)nc(N3CCO[C@@H](c4cnn(C)c4)C3)nc2c(=O)n1C (single isomer, unassigned) [Example 27B] |  | 10 to 100 nM | 75 to 110% | 
10 | Cc1nc2c(-c3ccc(C(F)(F)F)nc3)nc(N3CCO[C@@H](c4cnn(C)c4)C3)nc2c(=O)n1C (single isomer, unassigned) [Example 28B] |  | 10 to 100 nM | 75 to 110% | 
11 | Cc1nc2c(-c3ccc(C(F)(F)F)cc3F)nc([C@H]3CCO[C@@H](c4cnn(C)c4)C3)nc2c(=O)n1C (single isomer, unassigned) [Example 66] |  | > 1000 nM | 75 to 110% | 
12 | Cc1nc2c(-c3ccc(Cl)cc3F)nc([C@H]3CCO[C@@H](c4cnn(C)c4)C3)nc2c(=O)n1C (single isomer, unassigned) [Example 68] |  | > 1000 nM | 75 to 110% | 

The remaining lines, values ahead:

Row | Emax (maximal response relative to reference agonist example 1B (remaining examples)) | EC50 | Emax [1] | Emax [2] | Compound
13 |  | 100 to 1000 nM | 75 to 110% |  | Cc1ncc([C@H]2C[C@@H](c3nc(-c4ccc(Cl)cc4F)c4nc(C)n(C)c(=O)c4n3)CCO2)cn1 (racemic) [Example 37, 8-(4-chloro-2-fluorophenyl)-2,3-dimethyl-6-((2R,4S)-2-(2-methylpyrimidin-5-yl)tetrahydro-2H-pyran-4-yl)pyrimido[5,4-d]pyrimidin-4 (3H)-one]
14 |  | 100 to 1000 nM | < 75% |  | Cc1nc2c(-c3ccc(F)cc3F)nc(N3CC(C)OC(c4cnn(C5CC5)c4)C3)nc2c(=O)n1C (racemic) [Example 177C, 6-(2-(1-cyclopropyl-1H-pyrazol-4-yl)-6-methylmorpholino)-8-(2,4-difluorophenyl)-2,3-dimethylpyrimido[5,4-d]pyrimidin-4 (3H)-one]
15 |  | 100 to 1000 nM |  | 75 to 110% | Cc1nc2c(-c3ccc(Cl)cc3F)nc(N3CCO[C@H](c4cnn(C)c4)C3)nc2c(=O)n1C (single isomer, unassigned) [Example 1A]
16 |  | 10 to 100 nM |  | > 110% | Cc1nc2c(-c3ccc(Cl)cc3F)nc(N3CCO[C@@H](c4cnn(C)c4)C3)nc2c(=O)n1C (single isomer, unassigned) [Example 1B]
17 |  | 1 to 10 nM | 75 to 110% |  | Cc1nc2c(-c3ccc(C(F)(F)F)cc3F)nc(N3CCO[C@@H](c4cnn(C5CC5)c4)C3)nc2c(=O)n1C (single isomer, unassigned) [Example 20B]
18 |  | 10 to 100 nM | 75 to 110% |  | Cc1cc([C@@H]2CN(c3nc(-c4ccc(C(F)(F)F)cc4F)c4nc(C)n(C)c(=O)c4n3)CCO2)ccn1 (single isomer, unassigned) [Example 21A]
19 |  | 100 to 1000 nM | 75 to 110% |  | Cc1cc([C@@H]2CN(c3nc(-c4ccc(C(F)(F)F)nc4)c4nc(C)n(C)c(=O)c4n3)CCO2)ccn1 (single isomer, unassigned) [Example 22A]
20 |  | 10 to 100 nM | < 75% |  | Cc1cc([C@@H]2CN(c3nc(-c4ccc(Cl)cc4F)c4nc(C)n(C)c(=O)c4n3)CCO2)ccn1 (single isomer, unassigned) [Example 23A]
21 |  | 1 to 10 nM | 75 to 110% |  | Cc1cc([C@H]2CN(c3nc(-c4ccc(Cl)cc4F)c4nc(C)n(C)c(=O)c4n3)CCO2)ccn1 (single isomer, unassigned) [Example 23B]
22 |  | 100 to 1000 nM | < 75% |  | Cc1nc2c(-c3ccc(Cl)cc3F)nc([C@H]3CCO[C@@H](c4cnn(C5CC5)c4)C3)nc2c(=O)n1C (single isomer, unassigned) [Example 24B]
23 |  | 10 to 100 nM | < 75% |  | Cc1nc2c(-c3ccc(C(F)(F)F)cc3F)nc(N3CCO[C@@H](c4cnn(C)c4)C3)nc2c(=O)n1C (single isomer, unassigned) [Example 25B]
24 |  | 10 to 100 nM | 75 to 110% |  | Cc1nc2c(-c3ccc(Cl)cc3F)nc(N3CCO[C@H](c4cnn(C5CC5)c4)C3)nc2c(=O)n1C (single isomer, unassigned) [Example 26A]
25 |  | 1 to 10 nM | 75 to 110% |  | Cc1nc2c(-c3ccc(Cl)cc3F)nc(N3CCO[C@@H](c4cnn(C5CC5)c4)C3)nc2c(=O)n1C (single isomer, unassigned) [Example 26B]
26 |  | 10 to 100 nM | < 75% |  | Cc1nc2c(-c3cc(F)c(F)cc3F)nc(N3CCO[C@H](c4cnn(C)c4)C3)nc2c(=O)n1C (single isomer, unassigned) [Example 27A]
27 |  | > 1000 nM | 75 to 110% |  | Cc1nc2c(-c3ccc(C(F)(F)F)nc3)nc(N3CCO[C@H](c4cnn(C)c4)C3)nc2c(=O)n1C (single isomer, unassigned) [Example 28A]
28 |  | 100 to 1000 nM | < 75% |  | Cc1nc2c(-c3cc(F)c(F)cc3F)nc([C@@H]3CCO[C@H](c4cnn(C)c4)C3)nc2c(=O)n1C (single isomer, unassigned) [Example 38A]
29 |  | 10 to 100 nM | 75 to 110% |  | Cc1nc2c(-c3ccc(C(F)(F)F)cc3F)nc([C@@H]3CCO[C@H](c4cnn(C)c4)C3)nc2c(=O)n1C (single isomer, unassigned) [Example 65]
30 |  | 100 to 1000 nM | > 110% |  | Cc1nc2c(-c3ccc(Cl)cc3F)nc([C@@H]3CCO[C@H](c4cnn(C)c4)C3)nc2c(=O)n1C (single isomer, unassigned) [Example 67]
